Measurements from ChEMBL document CHEMBL1275369, “Structural insights into the hot spot amino acid residues of mushroom tyrosinase for the bindings of thujaplicins” (Bioorg Med Chem, 2010).

Assays:
Tyrosinase [1] = target: T1, Tyrosinase (Agaricus bisporus, UniProt O42713); experiment: Competitive inhibition of mushroom tyrosinase after 15 mins by Lineweaver-Burke plot analysis
T1 sequence (O42713 whole entry): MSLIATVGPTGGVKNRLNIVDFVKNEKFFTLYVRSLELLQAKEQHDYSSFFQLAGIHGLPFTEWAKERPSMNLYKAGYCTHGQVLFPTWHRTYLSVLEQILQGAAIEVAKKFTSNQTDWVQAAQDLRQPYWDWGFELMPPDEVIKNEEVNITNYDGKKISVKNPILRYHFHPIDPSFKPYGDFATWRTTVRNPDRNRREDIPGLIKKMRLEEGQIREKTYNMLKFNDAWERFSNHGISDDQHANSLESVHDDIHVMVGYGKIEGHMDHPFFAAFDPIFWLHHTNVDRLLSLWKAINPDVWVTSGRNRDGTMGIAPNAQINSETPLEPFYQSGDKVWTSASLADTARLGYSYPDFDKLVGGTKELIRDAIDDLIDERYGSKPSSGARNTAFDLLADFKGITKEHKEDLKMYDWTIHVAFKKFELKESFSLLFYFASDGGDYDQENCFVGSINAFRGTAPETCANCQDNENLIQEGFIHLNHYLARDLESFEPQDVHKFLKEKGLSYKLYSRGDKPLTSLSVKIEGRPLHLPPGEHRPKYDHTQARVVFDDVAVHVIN

Tyrosinase [2] = target: T1, Tyrosinase; experiment: Inhibition of mushroom tyrosinase after 15 mins
[3] = substrate: CC(C)c1ccccc(=O)c1O; conditions: Agaricus bisporus; 3 uM
Description: Inhibition of mushroom tyrosinase at 3 uM after 15 mins by Michaelis-Menten constant analysis

[4] = substrate: CC(C)c1cccc(=O)c(O)c1; conditions: Agaricus bisporus; 0.05 uM
Description: Inhibition of mushroom tyrosinase at 0.05 uM after 15 mins by Michaelis-Menten constant analysis

[5] = substrate: CC(C)c1ccc(O)c(=O)cc1; conditions: Agaricus bisporus; 0.02 uM
Description: Inhibition of mushroom tyrosinase at 0.02 uM after 15 mins by Michaelis-Menten constant analysis

[6] = substrate: CC(C)c1cccc(=O)c(O)c1; conditions: Agaricus bisporus; 0.20 uM
Description: Inhibition of mushroom tyrosinase at 0.20 uM after 15 mins by Michaelis-Menten constant analysis

[7] = substrate: CC(C)c1ccccc(=O)c1O; conditions: Agaricus bisporus; 6 uM
Description: Inhibition of mushroom tyrosinase at 6 uM after 15 mins by Michaelis-Menten constant analysis

[8] = substrate: CC(C)c1ccc(O)c(=O)cc1; conditions: Agaricus bisporus; 0.06 uM
Description: Inhibition of mushroom tyrosinase at 0.06 uM after 15 mins by Michaelis-Menten constant analysis

With `CC(C)c1ccccc(=O)c1O` [ALPHA-THUJAPLICIN] the Ki (Tyrosinase [1]) was 3300 nM and the IC50 (Tyrosinase [2]) was 9530 nM.

For `CC(C)c1ccc(O)c(=O)cc1` [GAMMA-THUJAPLICIN], the Ki (Tyrosinase [1]) was 20 nM and the IC50 (Tyrosinase [2]) was 70 nM.

Work on `CC(C)c1cccc(=O)c(O)c1` [HINOKITIOL] yielded a Ki (Tyrosinase [1]) of 60 nM and an IC50 (Tyrosinase [2]) of 90 nM.

B1: Tyrosinase (Agaricus bisporus), O42713 (protein)
chain: MSLIATVGPTGGVKNRLNIVDFVKNEKFFTLYVRSLELLQAKEQHDYSSFFQLAGIHGLPFTEWAKERPSMNLYKAGYCTHGQVLFPTWHRTYLSVLEQILQGAAIEVAKKFTSNQTDWVQAAQDLRQPYWDWGFELMPPDEVIKNEEVNITNYDGKKISVKNPILRYHFHPIDPSFKPYGDFATWRTTVRNPDRNRREDIPGLIKKMRLEEGQIREKTYNMLKFNDAWERFSNHGISDDQHANSLESVHDDIHVMVGYGKIEGHMDHPFFAAFDPIFWLHHTNVDRLLSLWKAINPDVWVTSGRNRDGTMGIAPNAQINSETPLEPFYQSGDKVWTSASLADTARLGYSYPDFDKLVGGTKELIRDAIDDLIDERYGSKPSSGARNTAFDLLADFKGITKEHKEDLKMYDWTIHVAFKKFELKESFSLLFYFASDGGDYDQENCFVGSINAFRGTAPETCANCQDNENLIQEGFIHLNHYLARDLESFEPQDVHKFLKEKGLSYKLYSRGDKPLTSLSVKIEGRPLHLPPGEHRPKYDHTQARVVFDDVAVHVIN
With B1 the Km [3] was 380 µM, the Km [4] was 530 µM and the Km [5] was 530 µM. The Km [6] was 1160 µM, the Km [7] was 380 µM and the Km [8] was 950 µM.
